Results as given in patent US10716791B2, “Inhibitors of peptidyl arginine deiminase (PAD) enzymes and uses thereof” (UNIVERSITY HEALTH NETWORK, priority 2015, dated 2020).

What was measured:
PAD4 [1] = molecular target: T1, PAD4 (Homo sapiens (Human), UniProt Q9UM07); assay: Inhibition of PAD activity (Example 53), PAD4; settings: for Ki: read-out: PAD4 Ki ± std error; for Ki / PAD4 Ki ± std error: Table 5
Method: (§1) Materials: PAD1, PAD2, PAD3 and PAD4 were purchased from commercial sources. Assay buffer: 50 mM Tris pH 7.5, 100 mM NaCl, 10 mM CaCl2, 5 mM DTT.
(§2) The inhibitor (12.5 μL of stock) was mixed with appropriate amount of substrate (BAEE) stock solution and preincubated at 37° C. for a period in the range of 0-60 min. The reaction was initiated by the addition of the enzyme. The reaction samples were incubated for a period in the range of 0-60 min. […] Samples were cooled on ice, vortexed and centrifuged. 200 μL aliquots were transferred to the 96-well plate and the absorbance was measured at 530 nm and the remaining activity was computed. The remaining activity data were plotted versus inhibitor concentration and fitted to the dose-response equation to calculate IC50.

CHO cells = assay: CHO cell toxicity assay; type: cell-based; settings: Cricetulus griseus
PAD2 = PAD2 (Mus musculus (Mouse), UniProt Q08642); assay: Inhibition of PAD activity (Example 53), PAD2; settings: for Ki: read-out: PAD2 Ki ± std error; for Ki / PAD2 Ki ± std error: Table 5
Method: as §1, §2

mPAD2 = mPAD2 (Mus musculus (Mouse), UniProt Q08642); assay: Enzyme inhibition kinetics (Example 54), mPAD2; type: biochemical; settings: for Ki: Table 6
PAD4 [2] = molecular target: T1, PAD4; assay: Enzyme inhibition kinetics (Example 54), hPAD4; type: biochemical; settings: for Ki: Table 6
PAD1 [3] = molecular target: T2, PAD1 (Homo sapiens (Human), UniProt Q9ULC6); assay: Inhibition of PAD activity (Example 53), PAD1; settings: Table 5; for Ki: read-out: PAD1 Ki ± std error
Method: as §1, §2

PAD1 [4] = molecular target: T2, PAD1; assay: Enzyme inhibition kinetics (Example 54), hPAD1; type: biochemical; settings: Table 6
PADs = assay: Enzymatic assays with hPAD1, mPAD2 and hPAD4, stated for PADs overall; type: biochemical; settings: summary of Table 6; read-out: Ki, activity towards PADs
animal models of MS = settings: cited from earlier work
PAD enzymes = settings: most potent non-peptidic compounds from the literature; cited from earlier work
[5] = read-out: Remaining activity of PAD2
[6] = read-out: Remaining activity of PAD4

T2 sequence (Q9ULC6 whole entry): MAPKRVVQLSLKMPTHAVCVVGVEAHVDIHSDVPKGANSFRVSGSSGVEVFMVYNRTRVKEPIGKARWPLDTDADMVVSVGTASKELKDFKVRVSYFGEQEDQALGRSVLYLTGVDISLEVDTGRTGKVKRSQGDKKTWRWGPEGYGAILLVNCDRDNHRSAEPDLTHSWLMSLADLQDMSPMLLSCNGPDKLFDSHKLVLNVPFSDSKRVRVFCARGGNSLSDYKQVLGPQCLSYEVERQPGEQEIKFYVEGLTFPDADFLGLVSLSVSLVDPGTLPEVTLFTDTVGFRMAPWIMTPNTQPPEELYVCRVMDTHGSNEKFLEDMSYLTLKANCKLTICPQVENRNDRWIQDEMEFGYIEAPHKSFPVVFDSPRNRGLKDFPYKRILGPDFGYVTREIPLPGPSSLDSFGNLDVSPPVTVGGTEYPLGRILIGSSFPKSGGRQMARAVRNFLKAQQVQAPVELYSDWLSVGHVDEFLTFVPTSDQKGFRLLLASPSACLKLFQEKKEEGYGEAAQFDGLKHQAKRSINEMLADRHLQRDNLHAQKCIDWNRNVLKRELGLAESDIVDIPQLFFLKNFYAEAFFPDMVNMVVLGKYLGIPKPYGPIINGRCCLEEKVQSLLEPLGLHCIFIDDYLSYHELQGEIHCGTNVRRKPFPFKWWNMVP
Sequence of PAD2 (Q08642 whole entry): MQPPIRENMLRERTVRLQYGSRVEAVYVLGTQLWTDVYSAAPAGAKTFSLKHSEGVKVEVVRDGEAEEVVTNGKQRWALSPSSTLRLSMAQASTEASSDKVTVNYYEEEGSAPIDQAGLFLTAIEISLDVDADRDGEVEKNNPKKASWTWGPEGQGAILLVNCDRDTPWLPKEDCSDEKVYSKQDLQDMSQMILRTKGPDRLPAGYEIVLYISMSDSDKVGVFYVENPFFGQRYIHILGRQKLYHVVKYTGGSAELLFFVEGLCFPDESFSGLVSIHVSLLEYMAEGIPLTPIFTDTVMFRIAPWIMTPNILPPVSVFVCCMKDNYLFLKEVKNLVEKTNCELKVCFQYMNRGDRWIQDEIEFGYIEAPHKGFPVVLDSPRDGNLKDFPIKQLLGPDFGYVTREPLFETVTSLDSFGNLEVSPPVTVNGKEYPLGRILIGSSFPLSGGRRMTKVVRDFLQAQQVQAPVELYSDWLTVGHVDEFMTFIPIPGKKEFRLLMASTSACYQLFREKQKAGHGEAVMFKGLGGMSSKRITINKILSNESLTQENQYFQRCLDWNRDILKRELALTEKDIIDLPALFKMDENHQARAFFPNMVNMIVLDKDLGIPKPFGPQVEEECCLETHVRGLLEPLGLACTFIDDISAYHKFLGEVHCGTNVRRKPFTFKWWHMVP
Sequence of mPAD2 (Q08642 whole entry): as above
T1 sequence (Q9UM07 whole entry): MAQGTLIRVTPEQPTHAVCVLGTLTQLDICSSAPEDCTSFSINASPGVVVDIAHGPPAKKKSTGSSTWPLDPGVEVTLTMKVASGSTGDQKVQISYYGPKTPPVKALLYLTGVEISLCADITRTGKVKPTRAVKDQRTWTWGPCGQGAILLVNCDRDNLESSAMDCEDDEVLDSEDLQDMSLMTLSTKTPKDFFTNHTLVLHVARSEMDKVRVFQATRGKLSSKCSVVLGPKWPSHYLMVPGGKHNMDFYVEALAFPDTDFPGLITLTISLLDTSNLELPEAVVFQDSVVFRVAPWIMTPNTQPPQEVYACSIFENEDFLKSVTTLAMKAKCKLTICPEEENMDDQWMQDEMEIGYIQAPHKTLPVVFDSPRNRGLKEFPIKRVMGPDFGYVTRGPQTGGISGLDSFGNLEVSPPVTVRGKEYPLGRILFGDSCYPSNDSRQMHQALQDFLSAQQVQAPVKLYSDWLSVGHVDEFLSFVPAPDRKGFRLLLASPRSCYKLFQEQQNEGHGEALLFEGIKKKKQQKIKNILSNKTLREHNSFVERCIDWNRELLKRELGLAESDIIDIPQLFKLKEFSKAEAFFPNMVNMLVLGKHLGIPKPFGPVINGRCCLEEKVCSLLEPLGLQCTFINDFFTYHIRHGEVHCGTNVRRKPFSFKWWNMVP

Structure (SMILES): CC(C)NC(=O)[C@H](Cn1ccnc1)NC(=O)N1CCOCC1 [KP-292]
- Ki (PAD4 [1]): ~14900 µM

Structure (SMILES): CC(C)NC(=O)[C@H](CCN1CCN(C)CC1)NC(=O)c1ccco1 [KP-289, (S)—N-(1-(Isopropylamino)-4-(4-methylpiperazin-1-yl)-1-oxobutan-2-yl)furan-2-carboxamide]
- IC50 (CHO cells): > 2000 µM
- Ki (PAD2): 1790 ± 2420 µM
- Ki (mPAD2): 1840 ± 2420 µM
- Selectivity ratio of inhibition, mPAD2 (PAD4) (mPAD2; mPAD2 versus PAD4): 0.3 (PAD4)
- Ki (PAD4 [1]): 488 ± 47 µM
- Ki (PAD4 [2]): 488 ± 47 µM
- Selectivity ratio of inhibition, hPAD4 (PAD2) (PAD4 [2]; hPAD4 versus PAD2): 3.7 (PAD2)

Structure (SMILES): CC(C)NC(=O)[C@H](CCN1CCN(C)CC1)NC(=O)N1CCOCC1 [KP-287, (S)—N-(1-(Isopropylamino)-4-(4-methylpiperazin-1-yl)-1-oxobutan-2-yl)morpholine-4-carboxamide]
- IC50 (CHO cells): > 2000 µM
- Ki (PAD2): 600 ± 1330 µM
- Ki (mPAD2): > 10000 µM
- PAD4 Ki ± std error (PAD4 [1]): No inhibition up to 10 mM
- PAD1 Ki ± std error (PAD1 [3]): Some inhibition but IC50 not calculated - no Ki
- Ki (PAD1 [4]): > 10000 µM
- Ki (PADs): 200 to 500 µM
- Ki (PAD4 [2]): > 10000 µM

Structure (SMILES): N=C(N)CCl [Compound 2CA, 2-chloroacetamidine]
- MS disease (animal models of MS; four animal models of MS): attenuated MS disease
- PAD activity in the brain (animal models of MS; four animal models of MS): decreased PAD activity in the brain
- amount of citrullinated protein (animal models of MS; four animal models of MS): decreased the amount of citrullinated protein
- disease after therapy cessation at 6 months (animal models of MS; one murine model): fully progressive clinical disease re-emerged promptly
- disease with early and prolonged administration (animal models of MS; one murine model): essentially prevented the disease

Structure (SMILES): O=C(N[C@@H](CCn1ccnc1)C(=O)NCc1ccccc1)c1ccco1 [KP-301, (S)—N-(1-(Benzylamino)-4-(1 [H]-imidazol-1-yl)-1-oxobutan-2-yl) furan-2-carboxamide]
- PAD2 Ki ± std error (PAD2): No inhibition up to 10 mM
- Ki (mPAD2): > 10000 µM
- PAD4 Ki ± std error (PAD4 [1]): No inhibition up to 10 mM
- PAD1 Ki ± std error (PAD1 [3]): No inhibition up to 10 mM
- Ki (PAD1 [4]): > 10000 µM
- Ki (PADs): 200 to 500 µM
- Ki (PAD4 [2]): > 10000 µM

Structure (SMILES): CN(C)[C@@H]1C(O)=C(C(N)=O)C(=O)[C@@]2(O)C(O)=C3C(=O)c4c(O)ccc(Cl)c4[C@@](C)(O)[C@H]3C[C@@H]12 [chlortetracycline]
- IC50 (PAD enzymes): 100 µM

Structure (SMILES): COC(=O)[C@H](Cn1ccnc1)NC(=O)c1ccco1 [KP-298]
- Ki (PAD2): 662 ± 210 µM
- Ki (PAD4 [1]): 1240 ± 1390 µM
- Ki (PAD1 [3]): 785 ± 384 µM

Structure (SMILES): CC(C)(C)OC(=O)N[C@H](CCN=[N+]=[N-])C(=O)NCc1ccccc1 [KP-310]
- Ki (PAD2): 1430 ± 186 µM
- Ki (PAD4 [1]): 1450 ± 187 µM
- Ki (PAD1 [3]): 3430 ± 1940 µM

Structure (SMILES): Cn1cccc1C(=O)N[C@@H](Cn1ccnc1)C(=O)NCc1ccccc1 [KP-305]
- Ki (PAD2): 58 ± 5 µM
- Ki (PAD1 [3]): 147 ± 52 µM

Structure (SMILES): CC(C)NC(=O)[C@H](CCn1ccnc1)NC(=O)c1ccco1 [KP-286, (S)—N-(4-(1[H]-imidazol-1-yl)-1-(isopropylamino)-1-oxobutan-2-yl) furan-2-carboxamide]
- IC50 (CHO cells): 546 ± 136 µM
- Ki (PAD2): 554 ± 93 µM
- Ki (mPAD2): 554 ± 93 µM
- Ki (PAD1 [3]): 2500 ± 1780 µM
- Ki (PAD1 [4]): 964 ± 689 µM

Structure (SMILES): CC(C)NC(=O)[C@H](CCN1CCN(C)CC1)NC(=O)C1CCCCC1 [KP-295, (S)—N-(1-(Isopropylamino)-4-(4-methylpiperazin-1-yl)-1-oxobutan-2yl) cyclohexanecarboxamide]
- PAD2 Ki ± std error (PAD2): No inhibition up to 10 mM
- Ki (mPAD2): > 10000 µM
- PAD4 Ki ± std error (PAD4 [1]): No inhibition up to 10 mM
- Ki (PAD4 [2]): > 10000 µM

Structure (SMILES): O=C(N[C@@H](CCn1ccnn1)C(=O)NCc1ccccc1)c1ccc(F)cc1 [KP-316, (S)—N-(1-(Benzylamino)-1-oxo-4-(1[H]-1,2,3-triazol-1-yl)butan-2-yl)-4-fluorobenzamide]
- PAD2 Ki ± std error (PAD2): Some inhibition but IC50 can't be calculated - no Ki
- PAD4 Ki ± std error (PAD4 [1]): Some inhibition but IC50 can't be calculated - no Ki
- Ki (PAD1 [3]): 77700 ± 91500 µM
- Ki (PAD1 [4]): > 10000 µM

Structure (SMILES): CC(C)(C)OC(=O)N[C@H](CCO)C(=O)NCc1ccccc1 [KP-311]
- PAD2 Ki ± std error (PAD2): No inhibition up to 10 mM
- PAD4 Ki ± std error (PAD4 [1]): No inhibition up to 10 mM
- PAD1 Ki ± std error (PAD1 [3]): No inhibition up to 10 mM

Structure (SMILES): O=C(N[C@@H](CCN1CCNCC1)C(=O)NCc1ccccc1)c1ccco1 [KP-228, (S)—N-(1-(Benzylamino)-1-oxo-4-(piperazin-1-yl)butan-2-yl)furan-2-carboxamide]
- remaining activity at 100 µM (PAD2; [5]): 58.6 ± 3.6%
- remaining activity at 1000 µM (PAD2; [5]): 31.8 ± 4.9%
- remaining activity at 100 µM (PAD4 [1]; [6]): 96.4 ± 10.4%
- remaining activity at 1000 µM (PAD4 [1]; [6]): 82.1 ± 7.2%
